Test results published in patent US20230139171A1 (SITA Information Networking Computing UK Limited, priority 2019, published 2023).

Legend:
Assay type in all cases: cell-based
human TLR7 = target: T1, human TLR7 (Homo sapiens, UniProt Q9NYK1); assay: TLR7 inhibition reporter assay (HEK-Blue cells, SEAP reporter, gardiquimod stimulation); conditions: HEK-Blue cells overexpressing human TLR7, SEAP reporter, gardiquimod 7.5 μM; read-out: TLR7 IC50
T1 construct: host or cells: HEK-Blue cells
T1 sequence (Q9NYK1 27-1049): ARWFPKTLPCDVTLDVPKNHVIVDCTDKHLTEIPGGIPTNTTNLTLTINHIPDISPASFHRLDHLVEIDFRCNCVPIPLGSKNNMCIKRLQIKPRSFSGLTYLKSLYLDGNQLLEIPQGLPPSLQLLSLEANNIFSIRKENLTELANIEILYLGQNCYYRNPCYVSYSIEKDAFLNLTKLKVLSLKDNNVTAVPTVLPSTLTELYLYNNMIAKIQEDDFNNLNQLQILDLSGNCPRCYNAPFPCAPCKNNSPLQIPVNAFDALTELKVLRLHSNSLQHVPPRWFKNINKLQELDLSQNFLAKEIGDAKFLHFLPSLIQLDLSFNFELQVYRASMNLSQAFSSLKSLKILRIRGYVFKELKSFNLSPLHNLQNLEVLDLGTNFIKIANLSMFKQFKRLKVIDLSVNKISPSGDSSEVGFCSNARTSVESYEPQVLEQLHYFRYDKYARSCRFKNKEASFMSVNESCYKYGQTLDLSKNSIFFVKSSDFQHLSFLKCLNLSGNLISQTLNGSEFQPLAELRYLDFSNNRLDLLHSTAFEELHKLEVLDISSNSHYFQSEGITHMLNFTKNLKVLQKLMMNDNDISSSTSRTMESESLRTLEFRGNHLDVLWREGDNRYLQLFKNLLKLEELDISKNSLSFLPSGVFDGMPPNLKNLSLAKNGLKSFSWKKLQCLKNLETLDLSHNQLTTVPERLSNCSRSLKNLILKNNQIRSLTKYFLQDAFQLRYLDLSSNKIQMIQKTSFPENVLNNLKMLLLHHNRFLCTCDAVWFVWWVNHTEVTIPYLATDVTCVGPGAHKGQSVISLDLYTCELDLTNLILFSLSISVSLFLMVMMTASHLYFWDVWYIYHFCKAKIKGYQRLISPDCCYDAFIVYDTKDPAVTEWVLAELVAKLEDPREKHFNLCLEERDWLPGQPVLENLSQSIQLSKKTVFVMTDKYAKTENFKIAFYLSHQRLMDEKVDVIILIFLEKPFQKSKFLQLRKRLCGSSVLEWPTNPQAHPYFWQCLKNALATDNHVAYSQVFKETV
Method in brief: (§1)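 Human TLR7/8/9 HEK-Blue reporter lines; dose range 0.05 nM–50 μM; 30 min RT preincubation; stimulus gardiquimod 7.5 μM / R848 15.9 μM / ODN2006 5 nM respectively; 22 h, 37 °C; SEAP detected colorimetrically.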

human TLR8 = target: T2, human TLR8 (Homo sapiens, UniProt Q9NR97); assay: TLR8 inhibition reporter assay (HEK-Blue cells, SEAP reporter, R848 stimulation); conditions: HEK-Blue cells overexpressing human TLR8, SEAP reporter, R848 15.9 μM; read-out: TLR8 IC50
T2 construct: host or cells: HEK-Blue cells
T2 sequence (Q9NR97 27-1041): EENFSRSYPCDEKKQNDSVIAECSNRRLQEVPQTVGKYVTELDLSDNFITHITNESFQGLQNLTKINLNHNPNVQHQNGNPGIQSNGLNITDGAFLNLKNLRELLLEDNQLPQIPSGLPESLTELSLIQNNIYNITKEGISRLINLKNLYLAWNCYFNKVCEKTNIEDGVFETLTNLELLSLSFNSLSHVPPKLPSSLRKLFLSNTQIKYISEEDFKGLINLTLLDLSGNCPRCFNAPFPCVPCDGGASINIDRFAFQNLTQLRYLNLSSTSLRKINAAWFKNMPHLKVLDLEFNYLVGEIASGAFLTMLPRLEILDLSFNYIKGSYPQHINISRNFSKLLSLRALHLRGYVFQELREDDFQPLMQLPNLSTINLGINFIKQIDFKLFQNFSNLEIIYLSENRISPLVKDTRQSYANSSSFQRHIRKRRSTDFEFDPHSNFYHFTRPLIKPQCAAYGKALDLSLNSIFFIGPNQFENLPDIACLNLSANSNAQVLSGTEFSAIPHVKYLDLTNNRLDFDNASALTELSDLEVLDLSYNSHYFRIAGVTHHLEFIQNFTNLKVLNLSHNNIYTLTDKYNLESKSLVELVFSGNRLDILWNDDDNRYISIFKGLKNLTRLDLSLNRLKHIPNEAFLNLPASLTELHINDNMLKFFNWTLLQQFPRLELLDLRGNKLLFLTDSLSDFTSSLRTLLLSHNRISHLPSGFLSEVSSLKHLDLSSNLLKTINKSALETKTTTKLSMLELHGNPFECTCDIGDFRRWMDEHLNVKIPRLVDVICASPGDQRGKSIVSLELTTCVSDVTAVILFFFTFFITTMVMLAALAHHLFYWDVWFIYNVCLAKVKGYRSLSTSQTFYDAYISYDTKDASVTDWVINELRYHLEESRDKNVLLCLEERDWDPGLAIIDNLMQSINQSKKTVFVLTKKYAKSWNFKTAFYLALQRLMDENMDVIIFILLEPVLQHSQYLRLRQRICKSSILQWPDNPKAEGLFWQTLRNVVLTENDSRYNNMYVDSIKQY
Method in brief: as §1

human TLR9 = target: T3, human TLR9 (Homo sapiens, UniProt Q9NR96); assay: TLR9 inhibition reporter assay (HEK-Blue cells, SEAP reporter, ODN2006 stimulation); conditions: HEK-Blue cells overexpressing human TLR9, SEAP reporter, ODN2006 5 nM
T3 construct: host or cells: HEK-Blue cells
T3 sequence (Q9NR96 26-1032): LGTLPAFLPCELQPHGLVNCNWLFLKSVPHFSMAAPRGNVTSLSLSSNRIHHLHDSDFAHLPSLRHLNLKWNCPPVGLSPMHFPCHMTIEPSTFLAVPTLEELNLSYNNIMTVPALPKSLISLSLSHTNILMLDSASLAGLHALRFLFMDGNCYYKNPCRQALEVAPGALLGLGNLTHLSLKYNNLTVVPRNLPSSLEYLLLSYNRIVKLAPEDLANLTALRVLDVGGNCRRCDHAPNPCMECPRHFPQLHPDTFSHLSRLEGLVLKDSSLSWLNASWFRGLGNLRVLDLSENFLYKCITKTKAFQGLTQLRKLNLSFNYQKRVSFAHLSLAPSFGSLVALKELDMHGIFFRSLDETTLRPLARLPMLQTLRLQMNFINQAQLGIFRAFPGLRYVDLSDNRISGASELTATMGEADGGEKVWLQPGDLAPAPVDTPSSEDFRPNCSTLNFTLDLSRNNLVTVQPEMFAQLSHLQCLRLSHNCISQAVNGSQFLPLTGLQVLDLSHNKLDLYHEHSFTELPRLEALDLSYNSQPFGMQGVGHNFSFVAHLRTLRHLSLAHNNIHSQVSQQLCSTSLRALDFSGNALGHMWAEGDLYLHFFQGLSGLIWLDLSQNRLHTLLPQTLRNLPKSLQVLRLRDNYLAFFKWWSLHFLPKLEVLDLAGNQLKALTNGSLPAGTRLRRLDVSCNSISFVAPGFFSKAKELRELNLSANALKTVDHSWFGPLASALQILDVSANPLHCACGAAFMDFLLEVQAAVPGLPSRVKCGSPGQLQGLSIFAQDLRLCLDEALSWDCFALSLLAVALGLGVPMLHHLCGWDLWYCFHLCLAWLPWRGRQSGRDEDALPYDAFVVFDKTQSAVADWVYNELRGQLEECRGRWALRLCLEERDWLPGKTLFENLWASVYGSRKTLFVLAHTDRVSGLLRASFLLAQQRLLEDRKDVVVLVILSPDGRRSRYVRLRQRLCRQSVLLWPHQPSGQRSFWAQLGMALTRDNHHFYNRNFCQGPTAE
Method in brief: as §1

| IC50 (human TLR7) | IC50 (human TLR8) | IC50 (human TLR9) | Compound |
| --- | --- | --- | --- |
| 637 nM | 713 nM | 46200 nM | Cc1c(-c2[nH]c3sc(C4CCC(N5CC(F)(F)C5)CC4)nc3c2C(C)C)cn2ncnc2c1C (single isomer, unassigned) [Example 219, 2-(4-(3,3-difluoroazetidin-1-yl)cyclohexyl)-5-(7,8-dimethyl-[1,2,4]triazolo[1,5-a]pyridin-6-yl)-6-isopropyl-4H-pyrrolo[3,2-d]thiazole] |
| 1.4 nM | 4.38 nM | > 50000 nM | Cc1c(-c2[nH]c3sc(C4CCC(N5CCNC(=O)C5)CC4)nc3c2C(C)C)cn2ncnc2c1C (single isomer, unassigned) [Example 220, 4-(4-(5-(7,8-dimethyl-[1,2,4]triazolo[1,5-a]pyridin-6-yl)-6-isopropyl-4H-pyrrolo[3,2-d]thiazol-2-yl)cyclohexyl) piperazin-2-one] |
| 3.08 nM | 33.3 nM | > 50000 nM | Cc1c(-c2[nH]c3sc(C4CCC(N5CCNC(=O)C5)CC4)nc3c2C(C)C)cn2ncnc2c1C (single isomer, unassigned) [Example 221, 4-(4-(5-(7,8-dimethyl-[1,2,4]triazolo[1,5-a]pyridin-6-yl)-6-isopropyl-4H-pyrrolo[3,2-d]thiazol-2-yl)cyclohexyl) piperazin-2-one] |
| 0.75 nM | 1.94 nM | 30400 nM | Cc1c(-c2[nH]c3sc(C4CCC(N(C)C(C)C)CC4)nc3c2C(C)C)cn2ncnc2c1C (single isomer, unassigned) [Example 222, 4-(5-(7,8-dimethyl-[1,2,4]triazolo[1,5-a]pyridin-6-yl)-6-isopropyl-4H-pyrrolo[3,2-d]thiazol-2-yl)-N-isopropyl-N-methylcyclohexan-1-amine] |
| 8.65 nM | 10.3 nM | 14300 nM | Cc1c(-c2[nH]c3sc(C4CCC(N(C)C(C)C)CC4)nc3c2C(C)C)cn2ncnc2c1C (single isomer, unassigned) [Example 223, 4-(5-(7,8-dimethyl-[1,2,4]triazolo[1,5-a]pyridin-6-yl)-6-isopropyl-4H-pyrrolo[3,2-d]thiazol-2-yl)-N-isopropyl-N-methylcyclohexan-1-amine] |
| 0.56 nM | 0.63 nM | 9030 nM | Cc1c(-c2[nH]c3sc(C4CCC(N5CC(O)C5)CC4)nc3c2C(C)C)cn2ncnc2c1C (single isomer, unassigned) [Example 224, 1-(4-(5-(7,8-dimethyl-[1,2,4]triazolo[1,5-a]pyridin-6-yl)-6-isopropyl-4H-pyrrolo[3,2-d]thiazol-2-yl)cyclohexyl)azetidin-3-ol] |
| 2.56 nM | 3.94 nM | 5490 nM | Cc1c(-c2[nH]c3sc(C4CCC(N5CC(O)C5)CC4)nc3c2C(C)C)cn2ncnc2c1C (single isomer, unassigned) [Example 225, 1-(4-(5-(7,8-dimethyl-[1,2,4]triazolo[1,5-a]pyridin-6-yl)-6-isopropyl-4H-pyrrolo[3,2-d]thiazol-2-yl)cyclohexyl)azetidin-3-ol] |
| 0.35 nM | 0.41 nM | 6780 nM | Cc1c(-c2[nH]c3sc(C4CCC(N5CC(F)C5)CC4)nc3c2C(C)C)cn2ncnc2c1C (single isomer, unassigned) [Example 226, 5-(7,8-dimethyl-[1,2,4]triazolo[1,5-a]pyridin-6-yl)-2-(4-(3-fluoroazetidin-1-yl)cyclohexyl)-6-isopropyl-4H-pyrrolo[3,2-d]thiazole] |
| 4.43 nM | 11.4 nM | 18200 nM | Cc1c(-c2[nH]c3sc(C4CCC(N5CC(F)C5)CC4)nc3c2C(C)C)cn2ncnc2c1C (single isomer, unassigned) [Example 227, 5-(7,8-dimethyl-[1,2,4]triazolo[1,5-a]pyridin-6-yl)-2-(4-(3-fluoroazetidin-1-yl)cyclohexyl)-6-isopropyl-4H-pyrrolo[3,2-d]thiazole] |
